“And” between values parts separate entries of the source, which are not always exact repeats. Identical values can stand only once.
Details: pH 5, individual replicates

COc1ccc(CCN(C)CCCC(C#N)(c2ccc(OC)c(OC)c2)C(C)C)cc1OC (racemic) [compound 70]
Concentration in octanol: 4350 ng/mL and 4200 ng/mL and 4240 ng/mL | Concentration in water: 5810 ng/mL and 6000 ng/mL and 5380 ng/mL

COc1ccc(CCN(C)CCCC(C#N)(c2ccc(OC)c(OC)c2)C(C)C)cc1OC (racemic) [compound 90]
Concentration in octanol: 5800 ng/mL and 5290 ng/mL and 4790 ng/mL | Concentration in water: 5900 ng/mL and 6180 ng/mL and 5100 ng/mL
